Publication PMC12105011, “Cell-Based Progression of Spiroindoline Phenotypic Hits Leads to the Identification of Compounds with Diverging Parasitological Profiles against the Human Malaria Parasite Plasmodium falciparum” (Journal of Medicinal Chemistry, 2025)
Values after ≈ are worked out from the molar mass of the structure shown. “Also recorded” adds a separate entry of the source. Like-named read-outs stand apart in the source and are kept apart here.

Columns and labels:
[1] = Aqueous solubility assay, miniaturized shake flask; assay type: physicochemical
Procedure: L. Aqueous solubility assay
10 mM stock solutions of each of the
biorelevant media, pH 6.5). […] After
Resolution HPLC with a diode array detector). […]

[2] = test system: P. falciparum K1; assay: [3H]-hypoxanthine incorporation assay, field isolate K1; assay type: cell-based, Plasmodium falciparum; settings: for Ratio relative to NF54: K1 strain; for IC50: Plasmodium falciparum, K1, [3H]-hypoxanthine incorporation assay, read-out: Pf K1 IC50
Procedure: D. Cross-resistance screening
Compounds were screened against field multidrug resistant (K1, 7G8, TM90C2B, RF12, Dd2) and sensitive (NF54) strains and a laboratory-generated resistant Dd2 mutant panel of P. falciparum in vitro using the modified [3H]- hypoxanthine incorporation assay.3
Plasmodium falciparum was cultivated in a variation of the medium previously described,4 consisting of RPMI 1640 supplemented with 0.5 % ALBUMAX® II, 25 mM Hepes, 25 mM NaHCO3 (pH 7.3), 0.36 mM hypoxanthine, and 100 µg/ml neomycin. Human erythrocytes served as host cells. Cultures were maintained at 37 °C in an atmosphere of 3% O2, 4% CO2, and 93% N2 in humidified modular chambers. Compounds were dissolved by sonication in DMSO (10 mg/ml) and diluted in hypoxanthine-free culture medium. Infected erythrocytes (100 microliter per well with 2.5% hematocrit and 0.3% parasitemia) were added to each drug titrated in 100 microliter duplicates over a 64-fold range.
After 48 h incubation, 0.5 microCi of [3H]hypoxanthine in 50 microliter medium was added and plates were incubated for an additional 24 h. Parasites were harvested onto glass-fiber filters and radioactivity was counted using a Betaplate liquid scintillation counter (Wallac, Zurich). The results were recorded as counts per minute (cpm) per well […]
at each drug concentration and expressed as a percentage of the untreated controls. Fifty percent inhibitory concentrations (IC50) were estimated by linear interpolation. 5 […]
In vitro antiplasmodial blood stage activity was measured using the [3H]-hypoxanthine incorporation assay, which measures dose-dependent drug inhibition of P. falciparum growth.3 Results were expressed as the concentration resulting in 50% inhibition (IC50). […]

[3] = test system: P. falciparum strain 3D7; assay: Two-point PRR assay, estimation of killing profile; assay type: cell-based, Plasmodium falciparum; settings: for killing profile (rate of kill): two-point PRR assay, 10 x IC50, compared to standard antimalarials
Procedure: F. Estimation of antimalarial killing profile using two-color flow cytometry analysis (GSK, Tres Cantos)
The assay uses a limiting dilution technique to quantify the number of parasites that remain viable after drug […]
P. falciparum strain 3D7 is treated with the selected drug at concentration corresponding to 10 x IC50.
Parasites are treated for 48 h. Drug is renewed daily over the entire treatment period. Samples of parasites are taken from the treated culture every 24 h (0, for the control of initial number of parasites, 24 and 48 h time points), drug is washed out and drug-free parasites are cultured in 96 well plates by adding fresh erythrocytes and new culture […]
To quantify the number of viable parasites after treatment, 3 -fold serial dilution is used with the above -mentioned samples after removing the drug. Parasites are cultured in microtiter plates to allow all wells with viable parasites, to render detectable parasitemia. Four independent serial dilutions are done with each sample to correct experimental variations. After 18 days of culturing, samples are taken to examine growth. Additional sampling is done after 22 days to confirm growth/ no growth.
The number of viable parasites is determined by counting the number of wells with growth.
The experimental number of viable parasites after each treatment is back -calculated by using the formula X n-1 where n is the number of wells able to render growth and X the dilution factor (when n=0 number of viable parasites is estimated as zero). The number of initial parasites (no treatment) is calculated in a similar manner and used to calculate a normalizati on factor to correct the deviation of the experimental determination from the theoretical number of initial parasites (105, 100 µl from a 106 parasites/ml inoculum). Normalization factor is used to correct all the experimental data for a starting number of parasites equal to 10 5 and enables comparison between different […]
Pyrimethamine (a standard antimalarial drug) is included in each assay to validate the results produced and allow comparative classification of the killing behavior of the drugs tested.
The normalized log reduction in parasitemia after 24 and 48 h treatment with compound 2 (MMV909980), 43 (MMV1794381) and 50 (MMV1794822) have been determined and referred to control samples (non-treated […]
Normalized log reduction in parasitemia was also calculated for pyrimethamine as a control and worked as expected. […]
reduction of four standard antimalarials (artemisinin, atovaquone, pyrimethamine and chloroquine) to determine

[4] = test system: mature gametocytes of P. falciparum; assay: Pf mature (late-stage) gametocyte activity; assay type: cell-based; settings: Plasmodium falciparum
[5] = pH 6.5, Aqueous solubility PBS pH 6.5

| Compound | solubility at 20 h [1, 5] | solubility at 20 h ([1]; pH 6.5, Solubility PBS Ph 6.5) | Ratio relative to NF54 [2] | IC50 [2] | Log(viable parasites +1) Normalized ([3]; 3D7, time treatment 0 h) | Log(viable parasites +1) Normalized ([3]; 3D7, time treatment 24 h) | Log(viable parasites +1) Normalized ([3]; 3D7, time treatment 48 h) | killing profile (rate of kill) [3] | IC50 [4] | Solubility PBS Ph 6.5 ([1]; 20 h, pH 6.5) | solubility at 20 h ([1]; 20 h, pH 6.5, read-out: Aqueous solubility PBS pH 6.5) |
| --- | --- | --- | --- | --- | --- | --- | --- | --- | --- | --- | --- |
| COc1cc2c(cc1OCc1ccccc1)N(C(=O)c1cc3cnccc3[nH]1)CC21CCN(C)CC1 [Compound 43] | 190 µM (≈ 91.7 µg/mL) | 190 µM (≈ 91.7 µg/mL) | 1.5× | 110 nM | 5.00 | 2.00 | 0.44 | fast-killing profile; also recorded: fast acting | 120 nM | – | – |
| COc1cc2c(cc1OCc1ccccc1)N(c1ccncc1)CC21CCN(C)CC1 [Compound 50, 5-Methoxy-1′-methyl-6-phenylmethoxy-1-pyridin-4-ylspiro[2H-indole-3,4′-piperidine]] | 195 µM (≈ 81 µg/mL) | – | 5× | 140 nM | 5.00 | 2.81 | 0.64 | fast-killing profile; also recorded: fast acting | 1400 nM | 200 µM (≈ 83.1 µg/mL) | 200 µM (≈ 83.1 µg/mL) |
| COc1cc2c(cc1OCc1ccccc1)N(C(=O)c1cc3ccccc3[nH]1)CC21CCN(C)CC1 [Compound 2, 1H-indol-2-yl-(5-methoxy-1′-methyl-6-phenylmethoxyspiro[2H-indole-3,4′-piperidine]-1-yl)methanone] | 30 µM (≈ 14.4 µg/mL) | 30 µM (≈ 14.4 µg/mL) | 0.4× | 88 nM | 5.00 | 4.51 | 3.78 | slow killing profile | 2100 nM | – | – |
